# Tested on: CAL51 cell proliferation
# Assay: Cell Titer Glo Proliferation Assay (CAL51)
# Format: cell-based, human
# Conditions: Homo sapiens, CAL-51; CAL51 cell proliferation, 72 h, Cell Titer Glo luminescence; read-out: Act. Level
# Summary of the method: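 CAL51 triple-negative breast cancer cells in DMEM or RPMI with 10% FBS were treated after overnight culture with serially diluted compound at 0.2% final DMSO. After 72 h, viability was read as CellTiter-Glo luminescence.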
row,SMILES,IC50 [nM]
1,"COc1cc(C(=O)NC(C)(C)C)ccc1Nc1nc(OC2CCCC2)c2c(-c3ccc4nc(C)oc4c3)c[nH]c2n1 [Example 224, N-tert-butyl-4-(4-(cyclopentyloxy)-5-(2-methylbenzo[d]oxazol-6-yl)-7H-pyrrolo[2,3-d]pyrimidin-2-ylamino)-3-methoxybenzamide]",100 to 400
2,"CNC(=O)c1ccc(Nc2nc(O[C@H]3CCOC3)c3c(-c4ccnn4C)c[nH]c3n2)c(C(C)C)c1 [Example 225, (S)-3-isopropyl-N-methyl-4-(5-(1-methyl-1H-pyrazol-5-yl)-4-(tetrahydrofuran-3-yloxy)-7H-pyrrolo[2,3-d]pyrimidin-2-ylamino)benzamide]",1000 to 10000
3,"CNC(=O)c1ccc(Nc2nc(OC(C)C)c3c(-c4ccnn4C)c[nH]c3n2)c(OC)c1 [Example 226, 4-(4-isopropoxy-5-(1-methyl-1H-pyrazol-5-yl)-7H-pyrrolo[2,3-d]pyrimidin-2-ylamino)-3-methoxy-N-methylbenzamide]",1000 to 10000
4,"COc1cc(-c2cnn(C)c2)ccc1Nc1nc(OC2CCCC2)c2c(-c3ccc4nc(C)oc4c3)c[nH]c2n1 [Example 227, 4-(cyclopentyloxy)-N-(2-methoxy-4-(1-methyl-1H-pyrazol-4-yl)phenyl)-5-(2-methylbenzo[d]oxazol-6-yl)-7H-pyrrolo[2,3-d] pyrimidin-2-amine]",100 to 400
5,"COc1cc(-n2cccn2)ccc1Nc1nc(OC2CCCC2)c2c(-c3ccc4nc(C)oc4c3)c[nH]c2n1 [Example 228, 4-(cyclopentyloxy)-N-(2-methoxy-4-(1H-pyrazol-1-yl)phenyl)-5-(2-methylbenzo[d]oxazol-6-yl)-7H-pyrrolo[2,3-d]pyrimidin-2-amine]",100 to 400
6,"COc1cc(C(=O)NC2CCCC2)ccc1Nc1nc(OC2CCCC2)c2c(-c3ccc4nc(C)oc4c3)c[nH]c2n1 [Example 229, N-cyclopentyl-4-(4-(cyclopentyl-oxy)-5-(2-methylbenzo[d]oxazol-6-yl)-7H-pyrrolo[2,3-d]pyrimidin-2-ylamino)-3-methoxybenzamide]",400 to 1000
7,"COc1cc(C(=O)NC[C@@H](C)O)ccc1Nc1nc(OC2CCCC2)c2c(-c3ccc4nc(C)oc4c3)c[nH]c2n1 [Example 230, (R)-4-(4-(cyclopentyloxy)-5-(2-methylbenzo[d]oxazol-6-yl)-7H-pyrrolo[2,3-d]pyrimidin-2-ylamino)-N-(2-hydroxypropyl)-3-methoxybenzamide]",100 to 400
8,"COc1cc(C(=O)N2CCC(O)CC2)ccc1Nc1nc(OC2CCCC2)c2c(-c3ccc4nc(C)oc4c3)c[nH]c2n1 [Example 231, (4-(4-(cyclopentyloxy)-5-(2-methylbenzo[d]oxazol-6-yl)-7H-pyrrolo[2,3-d]pyrimidin-2-ylamino)-3-methoxyphenyl)(4-hydroxy-piperidin-1-yl)methanone]",< 100
9,"COc1cc(C(=O)NCCCO)ccc1Nc1nc(OC2CCCC2)c2c(-c3ccc4nc(C)oc4c3)c[nH]c2n1 [Example 232, 4-(4-(cyclopentyloxy)-5-(2-methylbenzo[d]oxazol-6-yl)-7H-pyrrolo[2,3-d]pyrimidin-2-ylamino)-N-(3-hydroxypropyl)-3-methoxybenzamide]",< 100
10,"COc1cc(C(=O)N(C)CCO)ccc1Nc1nc(OC2CCCC2)c2c(-c3ccc4nc(C)oc4c3)c[nH]c2n1 [Example 233, 4-(4-(cyclopentyloxy)-5-(2-methylbenzo[d]oxazol-6-yl)-7H-pyrrolo[2,3-d]pyrimidin-2-ylamino)-N-(2-hydroxyethyl)-3-methoxy-N-methylbenzamide]",< 100
11,"COc1cc(C(=O)NC(C)(C)CO)ccc1Nc1nc(OC2CCCC2)c2c(-c3ccc4nc(C)oc4c3)c[nH]c2n1 [Example 234, 4-(4-(cyclopentyloxy)-5-(2-methylbenzo[d]oxazol-6-yl)-7H-pyrrolo[2,3-d]pyrimidin-2-ylamino)-N-(1-hydroxy-2-methylpropan-2-yl)-3-methoxybenzamide]",100 to 400
12,"Cc1nc2ccc(-c3c[nH]c4nc(Nc5ccc6c(c5)CNC6=O)nc(OC5CCCC5)c34)cc2o1 [Example 235, 5-(4-(cyclopentyloxy)-5-(2-methylbenzo[d]oxazol-6-yl)-7H-pyrrolo[2,3-d]pyrimidin-2-ylamino)isoindolin-1-one]",< 100
13,"CNC(=O)c1ccc(Nc2nc(OC3CCOCC3)c3c(-c4ccnc(NC(C)=O)c4)c[nH]c3n2)c(OC)c1 [Example 236, 4-(5-(2-acetamidopyridin-4-yl)-4-(tetrahydro-2H-pyran-4-yloxy)-7H-pyrrolo[2,3-d]pyrimidin-2-ylamino)-3-methoxy-N-methylbenzamide]",< 100
14,"COc1cc(C(=O)NC2CC(O)C2)ccc1Nc1nc(OC2CCCC2)c2c(-c3ccc4nc(C)oc4c3)c[nH]c2n1 (stereo not shown) [Example 238, 4-(4-(cyclopentyloxy)-5-(2-methylbenzo[d]oxazol-6-yl)-7H-pyrrolo[2,3-d]pyrimidin-2-ylamino)-N-((1s,3s)-3-hydroxycyclobutyl)-3-methoxybenzamide]",< 100
15,"COc1cc(C(=O)N[C@H]2C[C@H](O)C2)ccc1Nc1nc(OC2CCCC2)c2c(-c3ccc4nc(C)oc4c3)c[nH]c2n1 [Example 239, 4-(4-(cyclopentyloxy)-5-(2-methylbenzo[d]oxazol-6-yl)-7H-pyrrolo[2,3-d]pyrimidin-2-ylamino)-N-((1r,3r)-3-hydroxycyclobutyl)-3-methoxybenzamide]",< 100
16,"COc1cc(C(=O)NC[C@H](C)O)ccc1Nc1nc(OC2CCCC2)c2c(-c3ccc4nc(C)oc4c3)c[nH]c2n1 [Example 240, (S)-4-(4-(cyclopentyloxy)-5-(2-methylbenzo[d]oxazol-6-yl)-7H-pyrrolo[2,3-d]pyrimidin-2-ylamino)-N-(2-hydroxypropyl)-3-methoxybenzamide]",100 to 400
17,"COc1cc(C(=O)N2CCC2)ccc1Nc1nc(OC2CCCC2)c2c(-c3ccc4nc(C)oc4c3)c[nH]c2n1 [Example 241, azetidin-1-yl(4-(4-(cyclopentyloxy)-5-(2-methylbenzo[d]oxazol-6-yl)-7H-pyrrolo[2,3-d]pyrimidin-2-ylamino)-3-methoxyphenyl) methanone]",< 100
18,"COc1cc(C(=O)NC[C@H]2CCCO2)ccc1Nc1nc(OC2CCCC2)c2c(-c3ccc4nc(C)oc4c3)c[nH]c2n1 [Example 242, (R)-4-(4-(cyclopentyloxy)-5-(2-methylbenzo[d]oxazol-6-yl)-7H-pyrrolo[2,3-d]pyrimidin-2-ylamino)-3-methoxy-N-((tetrahydrofuran-2-yl)methyl)benzamide]",100 to 400
19,"COc1cc(C(=O)NCC2CCOCC2)ccc1Nc1nc(OC2CCCC2)c2c(-c3ccc4nc(C)oc4c3)c[nH]c2n1 [Example 243, 4-(4-(cyclopentyloxy)-5-(2-methylbenzo[d]oxazol-6-yl)-7H-pyrrolo[2,3-d]pyrimidin-2-ylamino)-3-methoxy-N-((tetrahydro-2H-pyran-4-yl)methyl)benzamide]",100 to 400
20,"Cc1nc2ccc(-c3c[nH]c4nc(Nc5ccc6c(c5)CN(C)C6=O)nc(OC5CCCC5)c34)cc2o1 [Example 244, 5-(4-(cyclopentyloxy)-5-(2-methylbenzo[d]oxazol-6-yl)-7H-pyrrolo[2,3-d]pyrimidin-2-ylamino)-2-methylisoindolin-1-one]",< 100
21,"CNC(=O)c1ccc(Nc2nc(OC3CCCC3)c3c(-c4ccc(C(=N)N)cc4)c[nH]c3n2)c(OC)c1 [Example 245, 4-(5-(4-carbamimidoylphenyl)-4-(cyclopentyloxy)-7H-pyrrolo[2,3-d]pyrimidin-2-ylamino)-3-methoxy-N-methylbenzamide]",1000 to 10000
22,"CNC(=O)c1ccc(Nc2nc(OC(C)(C)C)c3c(-c4ccc5nc(C)oc5c4)c[nH]c3n2)c(OC)c1 [Example 246, 4-(4-tert-butoxy-5-(2-methylbenzo[d]oxazol-6-yl)-7H-pyrrolo[2,3-d]pyrimidin-2-ylamino)-3-methoxy-N-methylbenzamide]",< 100
23,"COc1cc(NC(C)=O)ccc1Nc1nc(OC2CCCC2)c2c(-c3ccc4nc(C)oc4c3)c[nH]c2n1 [Example 247, N-(4-(4-(cyclopentyloxy)-5-(2-methylbenzo[d]oxazol-6-yl)-7H-pyrrolo[2,3-d]pyrimidin-2-ylamino)-3-methoxyphenyl) acetamide]",100 to 400
24,"COc1cc(C(=O)N(C)CCC#N)ccc1Nc1nc(OC2CCCC2)c2c(-c3ccc4nc(C)oc4c3)c[nH]c2n1 [Example 248, N-(2-cyanoethyl)-4-(4-(cyclo-pentyloxy)-5-(2-methylbenzo[d]oxazol-6-yl)-7H-pyrrolo[2,3-d]pyrimidin-2-ylamino)-3-methoxy-N-methylbenzamide]",< 100
25,"COc1cc(C(=O)N2CCCC2)ccc1Nc1nc(OC2CCCC2)c2c(-c3ccc4nc(C)oc4c3)c[nH]c2n1 [Example 249, (4-(4-(cyclopentyloxy)-5-(2-methylbenzo[d]oxazol-6-yl)-7H-pyrrolo[2,3-d]pyrimidin-2-ylamino)-3-methoxyphenyl) (pyrrolidin-1-yl)methanone]",100 to 400
26,"COc1cc(C(=O)N(C)C2CCOCC2)ccc1Nc1nc(OC2CCCC2)c2c(-c3ccc4nc(C)oc4c3)c[nH]c2n1 [Example 250, 4-(4-(cyclopentyloxy)-5-(2-methylbenzo[d]oxazol-6-yl)-7H-pyrrolo[2,3-d]pyrimidin-2-ylamino)-3-methoxy-N-methyl-N-(tetrahydro-2H-pyran-4-yl)benzamide]",100 to 400
27,"COc1cc(C(=O)N(CCO)C2CC2)ccc1Nc1nc(OC2CCCC2)c2c(-c3ccc4nc(C)oc4c3)c[nH]c2n1 [Example 251, 4-(4-(cyclopentyloxy)-5-(2-methylbenzo[d]oxazol-6-yl)-7H-pyrrolo[2,3-d]pyrimidin-2-ylamino)-N-cyclopropyl-N-(2-hydroxyethyl)-3-methoxybenzamide]",100 to 400
28,"COc1cc(C(=O)NC2CCOCC2)ccc1Nc1nc(OC2CCCC2)c2c(-c3ccc4nc(C)oc4c3)c[nH]c2n1 [Example 252, 4-(4-(cyclopentyloxy)-5-(2-methylbenzo[d]oxazol-6-yl)-7H-pyrrolo[2,3-d]pyrimidin-2-ylamino)-3-methoxy-N-(tetrahydro-2H-pyran-4-yl)benzamide]",100 to 400
